In US10766914B2, “DNA alkylating agents” (OBI PHARMA, INC., priority 2015, dated 2020):
Read-outs that look alike come from different tables or passages of the source.

Legend:
H460 cells = test: Proliferation assay in H460 cells (2 hr exposure, AlamarBlue); assay type: cell-based, human; conditions: Homo sapiens, NCI-H460, 2 hrs exposure, wash, 70 hrs growth, read-out: IC 50 in proliferation assay in H460 cells
Method in brief: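 H460 cells seeded at 4×10^3/well, grown 24 h, then exposed to compound for 2 h at 37 °C. Drug was washed off and cells were regrown 70 h in fresh medium. Viable cells were read by AlamarBlue, and IC50 was taken as the concentration giving 50% growth inhibition.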

A549 NSCLC xenograft = test: Example 4-D antitumor efficacy, ectopic A549 NSCLC xenograft model; assay type: in vivo, female nude mice (nu/nu); conditions: 40 mg/kg IP QD × 5/wk × 2 wks
Text: (§1) Specific pathogen-free homozygous female nude mice (nu/nu, Charles River Laboratories) were used. Mice were given food and water ad libitum and housed in microisolator cages. Four to six week old animals were identified by microchips (Locus Technology, Manchester, Md., USA) at the time of the experiments. All animal studies were approved by the Institutional Animal Care and Use Committee at Threshold Pharmaceuticals, Inc.
(§2) All cell lines were from the American Type Culture Collection (ATCC, Rockville, Md., USA).
(§3) Cells were mixed with Matrigel (50% with exception for 30% in the H460) and 0.2 ml per mouse were subcutaneously implanted to the flank area of the animals. When tumor size reached 100-150 250 mm3, mice were randomized into experimental or vehicle groups with 10 mice/group and treatment was started (Day 1). The tested compounds were formulated in 5% DMSO in D5W. The regimens employed in the examples include IP, QD×5/wk (5 days on, 2 days off) as one cycle, for a total of 2 cycles; IP, once; IP, weekly for total 3 weeks; and IV, weekly for 3 weeks. Tumor growth and body weight were measured twice a week. Tumor volume was calculated as (length×width2)/2. Drug efficacy was assessed as Tumor Growth Inhibition (TGI) and Tumor Growth Delay (TGD). TGI was defined as (1−ΔT/ΔC)×100, where ΔT/ΔC presented the ratio of the change in mean (or median, if variation within the group was relatively large) tumor volume of the treated group and of the control group. TGD was calculated as the extra days for the treated tumor to reach 500 mm3 or 1000 mm3 as compared to the control group. Animals were culled when individual tumor size reached over 2000 mm3 or mean tumor volume exceeded 1000 mm3 in the group. Data are expressed as the mean±SEM. One-way analysis of variance with Dunnett post comparison test (GraphPad Prism 4) or two-tailed student's t-test were used for analysis. A P level <0.05 was considered statistically significant.
(§4) The compounds were tested in another A549 model. The compounds were dosed as follows. Daily IP dosing: 5 doses then 2 days off then 5 more doses starting at 100 mm^3 tumors on day 1 (10 animals per group average tumor volume). The antitumor effects and the safety of administration are graphically illustrated below.

[1] = Example 4-D body weight change and lethal toxicity, A549 xenograft study; assay type: in vivo, female nude mice (nu/nu); conditions: 40 mg/kg IP QD × 5/wk × 2 wks
Experimental: as §3, §4

H460 NSCLC xenograft = test: Example 4-F antitumor efficacy, ectopic H460 NSCLC xenograft model; assay type: in vivo, female nude mice (nu/nu); conditions: ip
Text: as §1, §2, §3
(§5) The compounds TH-2953 and TH-3040 were tested in a H460 model. The compounds were dosed as follows. A dose-dependent TH-2953 was given IP once, from 6.25 to 100 mg/kg, comparing with daily IP: 5 doses then 2 days off then 5 more doses starting at 100 mm^3 tumors on day 1 (10 animals per group average tumor volume). TH-3040 was administered IP once. The antitumor effects and the safety of administration are graphically illustrated below.

[2] = Example 4-F body weight change, H460 xenograft study; assay type: in vivo, female nude mice (nu/nu); conditions: ip
Experimental: as §3, §5

[3] = Pharmacokinetics of TH2953 in NU/NU mice with A549 and H460 xenografts; assay type: in vivo, Mouse/Nu-Foxn 1nu NU/NU mice; conditions: Nu-Foxn1nu NU/NU, mouse; for Kp: intraperitoneal, A549 tumor xenograft, 10 and 40 mg/kg ip; for AUC / Cmax / Tmax / half-life: plasma, ip
Experimental: The pharmacokinetics of TH2660, the active metabolite, following a single iintraperitoneal dose of TH2953 are shown below.
A549 and H460, following a single intraperitoneal dose of 10 and 40 mg/kg for A549 and 10 mg/kg for H460. TH2953 concentrations in the brain, liver and tumor were 55.0-73.8%, 297-541% and 2.08-8.34% of the concentrations in plasma in the A549 tumor xenograft. […] In the A549 xenograft, the preferential activation of TH2953 was more pronounced as the concentrations of TH2660 in the tumor were ˜5-7-fold greater than for TH2953, while they were only ˜13-15% in the liver.

[4] = tested on: A 549 non-small cell lung xenograft; test: Example 4-B antitumor efficacy, ectopic A549 NSCLC xenograft model; assay type: in vivo, female nude mice (nu/nu)
Text: as §1, §2, §3
The dosing was as follows. Daily IP dosing: 5 doses then 2 days off then 5 more doses starting at 110 mm^3 tumors on day 1 (10 animals per group average tumor volume).
Doses were selected by first doing a toxicity test in CD1 mice as described above. The compounds were tested against Thio-tepa.

[5] = Example 4-B body weight change, A549 xenograft study; assay type: in vivo, female nude mice (nu/nu)
Experimental: as §3
Antitumor effects of compounds provided herein were determined on A 549 non-small cell lung xenograft model in comparison with a chemotherapy agent, thiotepa. The dosing was as follows. Daily IP dosing: 5 doses then 2 days off then 5 more doses starting at 110 mm^3 tumors on day 1 (10 animals per group average tumor volume). The antitumor effects and the safety of administration are graphically illustrated below.

[6] = tested on: A375 melanoma human tumor xenograft; test: Example 4-C antitumor efficacy, ectopic A375 melanoma xenograft model; assay type: in vivo, female nude mice (nu/nu); conditions: qd × 5 × 2, ip; for inhibition in vivo at 10 mg/kg: A-375, 10 mpk
Text: as §1, §2, §3
his study employed an A375 melanoma human tumor xenograft model and various compounds provided herein were compared to thiotepa and the approved anti melanoma drug, nab-Paclitaxel.

[7] = Example 4-C body weight change, A375 xenograft study; assay type: in vivo, female nude mice (nu/nu); conditions: qd × 5 × 2, ip
Experimental: as §3
his study employed an A375 melanoma human tumor xenograft model and various compounds provided herein were compared to thiotepa and the approved anti melanoma drug, nab-Paclitaxel. The antitumor effects and the safety of administration are graphically illustrated below.

[8] = Pharmacokinetics in CD-1 mice following a single intraperitoneal dose (parent and TH2660); conditions: mouse, in vivo, ip, parent compound
Experimental: The pharmacokinetics of TH2873, TH2883, TH2888, TH2890, TH2901 and TH2926 were determined in CD-1 mice following a single intraperitoneal dose.
The pharmacokinetics of TH2660, the active metabolite, following a single intraperitoneal dose of TH2873, TH2883, TH2888, TH2890, TH2901 and TH2926 are shown below.

[9] = 10 mg/kg, TH2953 10 mg/kg single ip, A549 xenograft
[10] = 10 mg/kg, TH2953 10 mg/kg single ip, H460 xenograft
[11] = 40 mg/kg, TH2953 40 mg/kg single ip, A549 xenograft
[12] = 1.25 mg/kg ip QD × 5/wk × 2 wks

CC(OP(=O)(N1CC1)N1CC1)c1ccc([N+](=O)[O-])c(Oc2ccc(-c3ccccc3)cc2)c1 (stereo not shown) [Compound 2953]
IC50 (H460 cells): 5 nM | TGD 500 (A549 NSCLC xenograft): 64 days | TGI (A549 NSCLC xenograft): 93.8% | Max. BW loss % [1]: 1.6% | Lethal Tox ([1]; 10 animals per group): 0 | TGD 500 (H460 NSCLC xenograft; 6.25 mpk, once): 16 days | TGD 1000 (H460 NSCLC xenograft; 6.25 mpk, once): 17 days | TGI (H460 NSCLC xenograft; 6.25 mpk, once): 72.2% | TGD 500 (H460 NSCLC xenograft; 12.5 mpk, once): 18 days | TGD 1000 (H460 NSCLC xenograft; 12.5 mpk, once): 21 days | TGI (H460 NSCLC xenograft; 12.5 mpk, once): 78.2% | TGD 500 (H460 NSCLC xenograft; 25 mpk, once): 18 days | TGD 1000 (H460 NSCLC xenograft; 25 mpk, once): 20 days | TGI (H460 NSCLC xenograft; 25 mpk, once): 86.1% | TGD 500 (H460 NSCLC xenograft; 40 mpk, QD × 5/wk × 2ks): 54 days | TGD 1000 (H460 NSCLC xenograft; 40 mpk, QD × 5/wk × 2ks): 65 days | TGI (H460 NSCLC xenograft; 40 mpk, QD × 5/wk × 2ks): 105.8% | TGD 500 (H460 NSCLC xenograft; 50 mpk, once): 19 days | TGD 1000 (H460 NSCLC xenograft; 50 mpk, once): 19 days | TGI (H460 NSCLC xenograft; 50 mpk, once): 90.4% | TGD 500 (H460 NSCLC xenograft; 100 mpk, once): 24 days | TGD 1000 (H460 NSCLC xenograft; 100 mpk, once): 27 days | TGI (H460 NSCLC xenograft; 100 mpk, once): 97.7% | Max. BW loss % ([2]; 6.25 mpk, once): 0.0% | Max. BW loss % ([2]; 12.5 mpk, once): 0.0% | Max. BW loss % ([2]; 25 mpk, once): 0.2% | Max. BW loss % ([2]; 40 mpk, QD × 5/wk × 2ks): 0.0% | Max. BW loss % ([2]; 50 mpk, once): 0.0% | Max. BW loss % ([2]; 100 mpk, once): 0.0% | Kp ([3]; brain (relative to plasma), read-out: concentration in the brain as % of the concentrations in plasma): 0.55 to 0.738 | Kp ([3]; liver (relative to plasma), read-out: concentration in the liver as % of the concentrations in plasma): 2.97 to 5.41 | AUC [3, 9]: 4430 ng·h/mL | Cmax [3, 9]: 149 ng/mL | Tmax [3, 9]: 30 min | half-life [3, 9]: 100 min | AUC [3, 10]: 7400 ng·h/mL | Cmax [3, 10]: 2330 ng/mL | Tmax [3, 10]: 15 min | half-life [3, 10]: 142 min | AUC [3, 11]: 39000 ng·h/mL | Cmax [3, 11]: 14800 ng/mL | Tmax [3, 11]: 30 min | half-life [3, 11]: 91.3 min | Kp ([3]; tumor (relative to plasma), read-out: concentration in the tumor as % of the concentrations in plasma): 0.0208 to 0.0834

O=[N+]([O-])c1ccc(COP(=O)(N2CC2)N2CC2)cc1Oc1ccccc1 [Compound 2850]
IC50 (H460 cells): 20 nM | TGD 500 ([4]; 10 mg/kg ip QD × 5/wk × 2 wks): 70 days | TGI ([4]; 10 mg/kg ip QD × 5/wk × 2 wks): 94.3% | TGD 500 ([4]; 20 mg/kg ip QD × 5/wk × 2 wks): >72 days | TGI ([4]; 20 mg/kg ip QD × 5/wk × 2 wks): 88.1% | Max. BW loss % ([5]; 10 mg/kg ip QD × 5/wk × 2 wks): 0.9% | Max. BW loss % ([5]; 20 mg/kg ip QD × 5/wk × 2 wks): 7.4% | TGD 500 ([6]; 10 mpk): -2 days | TGD 1000 ([6]; 10 mpk): 0 days | inhibition in vivo at 10 mg/kg ([6]; Mus musculus, read-out: TGI): 2.7% | Max. BW loss % ([7]; 10 mpk): 2.8%

CN(C)C(=O)c1cccc(Oc2cc(COP(=O)(N3CC3)N3CC3)ccc2[N+](=O)[O-])c1 [Compound 2889]
IC50 (H460 cells): 3 nM | TGD 500 ([4]; 10 mg/kg ip QD × 5/wk × 2 wks): 62 days | TGI ([4]; 10 mg/kg ip QD × 5/wk × 2 wks): 90.1% | Max. BW loss % ([5]; 10 mg/kg ip QD × 5/wk × 2 wks): 1.1% | TGD 500 ([6]; 10 mpk): 13 days | TGD 1000 ([6]; 10 mpk): 15 days | inhibition in vivo at 10 mg/kg ([6]; Mus musculus, read-out: TGI): 75.6% | Max. BW loss % ([7]; 10 mpk): 0% | AUC [8]: 598 ng·h/mL | Cmax [8]: 2480 ng/mL | Tmax [8]: 5 min | half-life [8]: 10.3 min

S=P(N1CC1)(N1CC1)N1CC1 [Thio-TEPA, thiotepa, reference compound]
TGD 500 [4, 12]: 17 days | TGI [4, 12]: 56.1% | TGD 500 ([4]; 2.5 mg/kg ip QD × 5/wk × 2 wks): 26 days | TGI ([4]; 2.5 mg/kg ip QD × 5/wk × 2 wks): 68.3% | Max. BW loss % [5, 12]: 0.0% | Max. BW loss % ([5]; 2.5 mg/kg ip QD × 5/wk × 2 wks): 0.4% | TGD 500 ([6]; 2.5 mpk): 3 days | TGD 1000 ([6]; 2.5 mpk): 2 days | inhibition in vivo at 2.5 mg/kg ([6]; Mus musculus, A-375, 2.5 mpk, read-out: TGI): 16.6% | Max. BW loss % ([7]; 2.5 mpk): 0%

CC(OP(=O)(N1CC1)N1CC1)c1ccc([N+](=O)[O-])c(Oc2cccnc2)c1 (stereo not shown) [Compound 2852]
IC50 (H460 cells): 20 nM | TGD 500 ([4]; 10 mg/kg ip QD × 5/wk × 2 wks): >72 days | TGI ([4]; 10 mg/kg ip QD × 5/wk × 2 wks): 95.1% | Max. BW loss % ([5]; 10 mg/kg ip QD × 5/wk × 2 wks): 0.0% | TGD 500 ([6]; 10 mpk): 3 days | TGD 1000 ([6]; 10 mpk): 1 days | inhibition in vivo at 10 mg/kg ([6]; Mus musculus, read-out: TGI): 12.4% | Max. BW loss % ([7]; 10 mpk): 2.6%
